{"source": "paper PMC11062899", "about": "“De novo development of small cyclic peptides that are orally bioavailable” (Nature Chemical Biology, 2023)", "key": {"human α-thrombin": {"target": "human α-thrombin (Homo sapiens, UniProt P00734)", "experiment": "Protease inhibition, Ki for human α-thrombin (fluorogenic substrate Z-Gly-Gly-Arg-AMC)", "format": "biochemical", "details": "for slope normalized to DMSO, human alpha thrombin inhibition / Human alpha thrombin inhibition, slope normalized to DMSO: replicates R1-R3", "procedure,_shortened": "(§1)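 Ki values come from Cheng–Prusoff correction of IC50, itself fitted by four-parameter logistic regression of activity versus a no-peptide control. Assays used 2 nM human or 3 nM rat thrombin, 50 μM Z-Gly-Gly-Arg-AMC, 30 min kinetic fluorescence at 25 °C.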"}, "rat α-thrombin": {"target": "T1, rat α-thrombin (Rattus norvegicus, UniProt P18292)", "T1 construct": "rat α-thrombin (Molecular Innovations) were used at final concentrations of 2 nM and 3 nM; purchased Molecular Innovations", "experiment": "Protease inhibition, Ki for rat α-thrombin (fluorogenic substrate Z-Gly-Gly-Arg-AMC)", "format": "biochemical", "details": "replicates R1-R3", "procedure,_shortened": "as §1"}}, "note": "Where “and” joins values, the source holds several entries; their conditions need not be identical. Equal entries are not always repeated. Where two headings read alike, the source gives them in different places."}
{"smiles": "O=C1C[C@H]2CCCN2C(=O)[C@H](Cc2ccccc2)NC(=O)[C@@H](NC(=O)c2ccc(Cl)s2)CCC=CCCCCN1", "note": "[peptide 43]", "values": [{"measurement": "slope normalized to DMSO, human alpha thrombin inhibition", "setting": "human α-thrombin; peptide 1.00E+02 uM", "result": "10.6 and 8.4 (2×)"}, {"measurement": "slope normalized to DMSO, human alpha thrombin inhibition", "setting": "human α-thrombin; peptide 1.19E-05 uM", "result": "106.5 and 81.0 and 107.9"}, {"measurement": "slope normalized to DMSO, human alpha thrombin inhibition", "setting": "human α-thrombin; peptide 1.22E-02 uM", "result": "62.0 and 85.6 and 70.0"}, {"measurement": "slope normalized to DMSO, human alpha thrombin inhibition", "setting": "human α-thrombin; peptide 1.25E+01 uM", "result": "12.3 and 9.9 and 11.8"}, {"measurement": "slope normalized to DMSO, human alpha thrombin inhibition", "setting": "human α-thrombin; peptide 1.53E-03 uM", "result": "95.1 and 99.7 and 102.7"}, {"measurement": "slope normalized to DMSO, human alpha thrombin inhibition", "setting": "human α-thrombin; peptide 1.56E+00 uM", "result": "18.3 and 16.9 and 22.5"}, {"measurement": "slope normalized to DMSO, human alpha thrombin inhibition", "setting": "human α-thrombin; peptide 1.91E-04 uM", "result": "119.9 and 101.0 and 100.8"}, {"measurement": "slope normalized to DMSO, human alpha thrombin inhibition", "setting": "human α-thrombin; peptide 1.95E-01 uM", "result": "42.7 and 40.6 and 41.3"}, {"measurement": "slope normalized to DMSO, human alpha thrombin inhibition", "setting": "human α-thrombin; peptide 2.38E-05 uM", "result": "106.9 and 97.9 and 102.5"}, {"measurement": "slope normalized to DMSO, human alpha thrombin inhibition", "setting": "human α-thrombin; peptide 2.44E-02 uM", "result": "46.0 and 65.3 and 70.3"}, {"measurement": "slope normalized to DMSO, human alpha thrombin inhibition", "setting": "human α-thrombin; peptide 2.50E+01 uM", "result": "11.7 and 11.0 and 8.9"}, {"measurement": "slope normalized to DMSO, human alpha thrombin inhibition", "setting": "human α-thrombin; peptide 3.05E-03 uM", "result": "106.1 and 101.5 and 67.8"}, {"measurement": "slope normalized to DMSO, human alpha thrombin inhibition", "setting": "human α-thrombin; peptide 3.12E+00 uM", "result": "3.8 and 18.2 and 18.8"}, {"measurement": "slope normalized to DMSO, human alpha thrombin inhibition", "setting": "human α-thrombin; peptide 3.81E-04 uM", "result": "102.1 and 100.1 and 93.5"}, {"measurement": "slope normalized to DMSO, human alpha thrombin inhibition", "setting": "human α-thrombin; peptide 3.91E-01 uM", "result": "14.9 and 22.0 and 10.5"}, {"measurement": "slope normalized to DMSO, human alpha thrombin inhibition", "setting": "human α-thrombin; peptide 4.77E-05 uM", "result": "101.9 and 97.6 and 92.9"}, {"measurement": "slope normalized to DMSO, human alpha thrombin inhibition", "setting": "human α-thrombin; peptide 4.88E-02 uM", "result": "73.8 and 55.8 and 60.0"}, {"measurement": "slope normalized to DMSO, human alpha thrombin inhibition", "setting": "human α-thrombin; peptide 5.00E+01 uM", "result": "9.3 and 5.3"}, {"measurement": "slope normalized to DMSO, human alpha thrombin inhibition", "setting": "human α-thrombin; peptide 6.10E-03 uM", "result": "98.4 and 93.3 and 99.0"}, {"measurement": "slope normalized to DMSO, human alpha thrombin inhibition", "setting": "human α-thrombin; peptide 6.25E+00 uM", "result": "13.3 and 15.1 and 10.3"}, {"measurement": "slope normalized to DMSO, human alpha thrombin inhibition", "setting": "human α-thrombin; peptide 7.63E-04 uM", "result": "80.8 and 91.3 and 104.9"}, {"measurement": "slope normalized to DMSO, human alpha thrombin inhibition", "setting": "human α-thrombin; peptide 7.81E-01 uM", "result": "21.2 and 22.0 (2×)"}, {"measurement": "slope normalized to DMSO, human alpha thrombin inhibition", "setting": "human α-thrombin; peptide 9.54E-05 uM", "result": "101.3 and 101.9 and 107.5"}, {"measurement": "slope normalized to DMSO, human alpha thrombin inhibition", "setting": "human α-thrombin; peptide 9.77E-02 uM", "result": "65.8 and 56.8 and 59.4"}, {"measurement": "Human alpha thrombin inhibition, slope normalized to DMSO", "setting": "human α-thrombin; peptide concentration 1.00E+02 uM", "result": "10.6 and 8.4 (2×)"}, {"measurement": "Human alpha thrombin inhibition, slope normalized to DMSO", "setting": "human α-thrombin; peptide concentration 1.19E-05 uM", "result": "106.5 and 81.0 and 107.9"}, {"measurement": "Human alpha thrombin inhibition, slope normalized to DMSO", "setting": "human α-thrombin; peptide concentration 1.22E-02 uM", "result": "62.0 and 85.6 and 70.0"}, {"measurement": "Human alpha thrombin inhibition, slope normalized to DMSO", "setting": "human α-thrombin; peptide concentration 1.25E+01 uM", "result": "12.3 and 9.9 and 11.8"}, {"measurement": "Human alpha thrombin inhibition, slope normalized to DMSO", "setting": "human α-thrombin; peptide concentration 1.53E-03 uM", "result": "95.1 and 99.7 and 102.7"}, {"measurement": "Human alpha thrombin inhibition, slope normalized to DMSO", "setting": "human α-thrombin; peptide concentration 1.56E+00 uM", "result": "18.3 and 16.9 and 22.5"}, {"measurement": "Human alpha thrombin inhibition, slope normalized to DMSO", "setting": "human α-thrombin; peptide concentration 1.91E-04 uM", "result": "119.9 and 101.0 and 100.8"}, {"measurement": "Human alpha thrombin inhibition, slope normalized to DMSO", "setting": "human α-thrombin; peptide concentration 1.95E-01 uM", "result": "42.7 and 40.6 and 41.3"}, {"measurement": "Human alpha thrombin inhibition, slope normalized to DMSO", "setting": "human α-thrombin; peptide concentration 2.38E-05 uM", "result": "106.9 and 97.9 and 102.5"}, {"measurement": "Human alpha thrombin inhibition, slope normalized to DMSO", "setting": "human α-thrombin; peptide concentration 2.44E-02 uM", "result": "46.0 and 65.3 and 70.3"}, {"measurement": "Human alpha thrombin inhibition, slope normalized to DMSO", "setting": "human α-thrombin; peptide concentration 2.50E+01 uM", "result": "11.7 and 11.0 and 8.9"}, {"measurement": "Human alpha thrombin inhibition, slope normalized to DMSO", "setting": "human α-thrombin; peptide concentration 3.05E-03 uM", "result": "106.1 and 101.5 and 67.8"}, {"measurement": "Human alpha thrombin inhibition, slope normalized to DMSO", "setting": "human α-thrombin; peptide concentration 3.12E+00 uM", "result": "3.8 and 18.2 and 18.8"}, {"measurement": "Human alpha thrombin inhibition, slope normalized to DMSO", "setting": "human α-thrombin; peptide concentration 3.81E-04 uM", "result": "102.1 and 100.1 and 93.5"}, {"measurement": "Human alpha thrombin inhibition, slope normalized to DMSO", "setting": "human α-thrombin; peptide concentration 3.91E-01 uM", "result": "14.9 and 22.0 and 10.5"}, {"measurement": "Human alpha thrombin inhibition, slope normalized to DMSO", "setting": "human α-thrombin; peptide concentration 4.77E-05 uM", "result": "101.9 and 97.6 and 92.9"}, {"measurement": "Human alpha thrombin inhibition, slope normalized to DMSO", "setting": "human α-thrombin; peptide concentration 4.88E-02 uM", "result": "73.8 and 55.8 and 60.0"}, {"measurement": "Human alpha thrombin inhibition, slope normalized to DMSO", "setting": "human α-thrombin; peptide concentration 5.00E+01 uM", "result": "9.3 and 5.3"}, {"measurement": "Human alpha thrombin inhibition, slope normalized to DMSO", "setting": "human α-thrombin; peptide concentration 6.10E-03 uM", "result": "98.4 and 93.3 and 99.0"}, {"measurement": "Human alpha thrombin inhibition, slope normalized to DMSO", "setting": "human α-thrombin; peptide concentration 6.25E+00 uM", "result": "13.3 and 15.1 and 10.3"}, {"measurement": "Human alpha thrombin inhibition, slope normalized to DMSO", "setting": "human α-thrombin; peptide concentration 7.63E-04 uM", "result": "80.8 and 91.3 and 104.9"}, {"measurement": "Human alpha thrombin inhibition, slope normalized to DMSO", "setting": "human α-thrombin; peptide concentration 7.81E-01 uM", "result": "21.2 and 22.0 (2×)"}, {"measurement": "Human alpha thrombin inhibition, slope normalized to DMSO", "setting": "human α-thrombin; peptide concentration 9.54E-05 uM", "result": "101.3 and 101.9 and 107.5"}, {"measurement": "Human alpha thrombin inhibition, slope normalized to DMSO", "setting": "human α-thrombin; peptide concentration 9.77E-02 uM", "result": "65.8 and 56.8 and 59.4"}, {"measurement": "Ki", "setting": "human α-thrombin; purified peptide, mean and s.d. of three measurements, read-out: Ki human α-thrombin", "result": "50 ± 6", "unit": "nM"}, {"measurement": "IC50", "setting": "human α-thrombin; single replicates R1-R3, read-out: Human alpha thrombin inhibition, IC50", "result": "56.4 nM and 74.7 nM and 63.5 nM"}, {"measurement": "Ki", "setting": "human α-thrombin; single replicates R1-R3, read-out: Human alpha thrombin inhibition, Ki", "result": "43.5 nM and 57.6 nM and 48.9 nM"}, {"measurement": "slope normalized to DMSO, rat alpha thrombin inhibition", "setting": "rat α-thrombin; peptide 1.00E+02 uM", "result": "5.4 and 5.2 and 4.3"}, {"measurement": "slope normalized to DMSO, rat alpha thrombin inhibition", "setting": "rat α-thrombin; peptide 1.19E-05 uM", "result": "102.6 and 102.2 and 91.2"}, {"measurement": "slope normalized to DMSO, rat alpha thrombin inhibition", "setting": "rat α-thrombin; peptide 1.22E-02 uM", "result": "54.9 and 61.5 and 61.2"}, {"measurement": "slope normalized to DMSO, rat alpha thrombin inhibition", "setting": "rat α-thrombin; peptide 1.25E+01 uM", "result": "7.2 and 11.2 and 5.0"}, {"measurement": "slope normalized to DMSO, rat alpha thrombin inhibition", "setting": "rat α-thrombin; peptide 1.53E-03 uM", "result": "90.8 and 92.4 and 84.4"}, {"measurement": "slope normalized to DMSO, rat alpha thrombin inhibition", "setting": "rat α-thrombin; peptide 1.56E+00 uM", "result": "8.6 and 7.9 and 7.3"}, {"measurement": "slope normalized to DMSO, rat alpha thrombin inhibition", "setting": "rat α-thrombin; peptide 1.91E-04 uM", "result": "101.3 and 100.0 and 99.0"}, {"measurement": "slope normalized to DMSO, rat alpha thrombin inhibition", "setting": "rat α-thrombin; peptide 1.95E-01 uM", "result": "18.2 and 17.7 and 18.1"}, {"measurement": "slope normalized to DMSO, rat alpha thrombin inhibition", "setting": "rat α-thrombin; peptide 2.38E-05 uM", "result": "104.9 and 102.6 and 101.9"}, {"measurement": "slope normalized to DMSO, rat alpha thrombin inhibition", "setting": "rat α-thrombin; peptide 2.44E-02 uM", "result": "50.2 and 48.9 and 44.8"}]}
